Eleven molecules from ChEMBL document CHEMBL1201862, “PubChem BioAssay data set” (2004) can be followed below.

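Results reflect a 48-hour exposure of cells in 96-well plates to compound at five concentrations. GI50: concentration for 50% inhibition of growth.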 The source made the active and inactive calls. Cut-off read from the data, not from the text of the source: active = GI50 up to about 1.1 µM and inactive = higher.

Some test systems named below: 786-0; CCRF-CEM; HCT-15; HT-29; K562; M14; NCI-H226; NCI-H23; NCI-H460; OVCAR-3; OVCAR-4; OVCAR-5; RXF 393; SF-268; SF-539; SR; TK-10; UACC-62; MOLT-4.
What all share (test): growth of human tumour cells (NCI), 48 h

Take `O=C(Cc1nc2ccc(C(=O)c3ccccc3)cc2nc1O)C(=O)Nc1ccccc1[N+](=O)[O-]`: the GI50 in the assay with 786-0 is 80.2 µM (inactive); in the assay with CCRF-CEM, 50.9 µM (inactive); in the assay with HCT-15, 46.3 µM; in the assay on HT-29, 47.1 µM (inactive); with K562 it was 30.1 µM (inactive); in the assay with M14, 92 µM (inactive). The GI50 was 13.8 µM (inactive) with NCI-H226; 42.2 µM (inactive) in the assay on NCI-H23; 53.6 µM (inactive) with NCI-H460; > 100 µM (inactive) in the assay with OVCAR-3; 32.4 µM (inactive) in the assay on OVCAR-4; > 100 µM (inactive) in the assay on OVCAR-5. Moreover, the GI50 in the assay with RXF 393 was 53.8 µM (inactive); in the assay with SF-268, 87.7 µM (inactive); in the assay on SF-539 it was > 100 µM (inactive); with SR, 29.2 µM (inactive); in the assay with TK-10, 98.9 µM (inactive); in the assay with UACC-62 it was 55.3 µM (inactive).

As for `CN(C)C(=S)/N=c1\sn(C)/c(=N\C(=S)N(C)C)n1C`, the GI50 in the assay on 786-0 is > 100 µM (inactive); in the assay with HCT-15 it was over 100 µM; with HT-29, 25.9 µM (inactive); in the assay with K562, 34.1 µM (inactive); with M14, > 100 µM (inactive); in the assay with MOLT-4, > 100 µM (inactive). Besides, the GI50 with NCI-H226 is > 100 µM (inactive); in the assay with NCI-H23, 30.8 µM (inactive); in the assay with NCI-H460 it was 50.6 µM (inactive); with OVCAR-3, > 100 µM (inactive); with OVCAR-4 it was > 100 µM (inactive); in the assay on OVCAR-5 it was > 100 µM (inactive). Further, the GI50 in the assay with RXF 393 was > 100 µM (inactive); in the assay on SF-268 it was > 100 µM (inactive); in the assay on SF-539, > 100 µM (inactive); in the assay on SR it was > 100 µM (inactive); with TK-10, > 100 µM (inactive); with UACC-62 it was 32.2 µM (inactive).

Regarding `CC(/C=C/C(=O)c1sc(-n2nc(-c3ccccc3)cc2-c2ccccc2)nc1C)=C\c1ccccc1`, the GI50 was 96.4 µM (inactive) with 786-0; 27.7 µM (inactive) with CCRF-CEM; 19.2 µM in the assay with HCT-15; > 10 µM (inactive) in the assay with HT-29; 19.9 µM (inactive) in the assay with K562; > 10 µM (inactive) in the assay on M14. Also, the GI50 in the assay on MOLT-4 is 9.06 µM (inactive); in the assay with NCI-H226 it was > 10 µM (inactive); in the assay with NCI-H23, 8.3 µM (inactive); in the assay on NCI-H460, 52.7 µM (inactive); in the assay with OVCAR-3, 26.7 µM (inactive); with OVCAR-4 it was 7.43 µM (inactive). For the same molecule, the GI50 with OVCAR-5 is > 10 µM (inactive); with RXF 393, > 10 µM (inactive); in the assay with SF-268, 72.9 µM (inactive); with SF-539 it was 52.1 µM (inactive); with SR, 27.2 µM (inactive); with TK-10 it was > 10 µM (inactive). The GI50 in the assay on UACC-62 was 40.5 µM (inactive).

For the molecule `CN(C(=O)C12C3(C(=O)C(C)(C)C)C4C5(C#N)C3C1(C(=O)C(C)(C)C)C5C42C(=O)C(C)(C)C)C(C)(C)C` (stereo not given), the GI50 was > 50 µM (inactive) with 786-0; 16.6 µM (inactive) with CCRF-CEM; over 50 µM in the assay on HCT-15; > 50 µM (inactive) in the assay on HT-29; 27.2 µM (inactive) with K562; > 50 µM (inactive) with M14. Further, the GI50 with MOLT-4 is 20 µM (inactive); with NCI-H226, > 50 µM (inactive); with NCI-H23, 40.6 µM (inactive); in the assay with NCI-H460, > 50 µM (inactive); with OVCAR-3 it was 38.9 µM (inactive); in the assay on OVCAR-4, 31.6 µM (inactive). In addition, the GI50 in the assay on OVCAR-5 was > 50 µM (inactive); with SF-268 it was 32.5 µM (inactive); in the assay with SF-539, > 50 µM (inactive); in the assay with SR, 43.8 µM (inactive); in the assay on TK-10 it was > 50 µM (inactive); in the assay with UACC-62, 48.8 µM (inactive).

`CS(=O)(=O)N(N(CCCl)S(=O)(=O)c1ccccc1)S(C)(=O)=O`: the GI50 with 786-0 is 44.7 µM (inactive); in the assay on CCRF-CEM, > 100 µM (inactive); in the assay on HCT-15, over 100 µM; with HT-29, > 100 µM (inactive); in the assay with K562 it was > 100 µM (inactive); in the assay with M14, > 100 µM (inactive). In addition, the GI50 was > 100 µM (inactive) in the assay on MOLT-4; > 100 µM (inactive) with NCI-H226; > 100 µM (inactive) in the assay on NCI-H23; 86.1 µM (inactive) with NCI-H460; > 100 µM (inactive) with OVCAR-3; > 100 µM (inactive) in the assay with OVCAR-4. In addition, the GI50 was > 100 µM (inactive) in the assay on RXF 393; 21.3 µM (inactive) with SF-268; 38.5 µM (inactive) in the assay on SF-539; > 100 µM (inactive) with SR; > 100 µM (inactive) with TK-10; > 100 µM (inactive) in the assay on UACC-62.

Take `O=C(c1cc2c(C(F)(F)F)onc2c2ccccc12)C(F)(F)F`: the GI50 was 1.93 µM (inactive) in the assay on 786-0; 0.34 µM (active) with CCRF-CEM; 0.741 µM in the assay on HCT-15; 3.7 µM (inactive) with HT-29; 0.855 µM (active) in the assay with K562; 3.94 µM (inactive) in the assay on M14. The GI50 with MOLT-4 is 1.15 µM (inactive); in the assay with NCI-H226, 3.01 µM (inactive); in the assay with NCI-H23 it was 0.929 µM (active); with NCI-H460, 1.24 µM (inactive); in the assay with OVCAR-3, 2.22 µM (inactive); in the assay on OVCAR-4, 3.65 µM (inactive). Further, the GI50 is 6.9 µM (inactive) in the assay with OVCAR-5; 4.3 µM (inactive) with RXF 393; 2.75 µM (inactive) in the assay on SF-268; 3.75 µM (inactive) in the assay with SF-539; 1.41 µM (inactive) with SR; 7.4 µM (inactive) in the assay with TK-10. In addition, in the assay with UACC-62, the GI50 was 2.98 µM (inactive).

For `O=C1c2cc3c(cc2[C@@H]2NC4CCCC14O2)OCO3` (stereo not given in full), the GI50 with 786-0, in the assay with CCRF-CEM, in the assay with HT-29, in the assay on K562, in the assay on M14 and in the assay with MOLT-4 was > 100 µM (inactive) each time. Besides, the GI50 with NCI-H226, with NCI-H23, in the assay on NCI-H460, in the assay with OVCAR-3, in the assay on OVCAR-4 and with OVCAR-5 was > 100 µM (inactive) in each case. For the same molecule, the GI50 with RXF 393, in the assay with SF-268, in the assay on SF-539, in the assay with SR, with TK-10 and in the assay on UACC-62 was > 100 µM (inactive) throughout.

With `Cc1nc(-n2nc(-c3ccccc3)cc2-c2ccccc2)sc1C(=O)CC(=O)C(=O)Nc1ccc(Cl)c(Cl)c1`, the GI50 is > 100 µM (inactive) in the assay with 786-0; 41.3 µM (inactive) in the assay on CCRF-CEM; 56.1 µM in the assay on HCT-15; 29.9 µM (inactive) with HT-29; 41.6 µM (inactive) in the assay with K562; > 100 µM (inactive) in the assay on M14. In addition, the GI50 with MOLT-4 is 59.6 µM (inactive); in the assay on NCI-H226, > 100 µM (inactive); in the assay with NCI-H23, 43.1 µM (inactive); in the assay on NCI-H460 it was 71.4 µM (inactive); with OVCAR-3, 69.2 µM (inactive); with OVCAR-4, 66.4 µM (inactive). For the same molecule, the GI50 with OVCAR-5 was 53.8 µM (inactive); in the assay on RXF 393, > 100 µM (inactive); in the assay on SF-268, 48.5 µM (inactive); in the assay with SF-539, 67.1 µM (inactive); in the assay on SR, > 100 µM (inactive); in the assay on TK-10, > 100 µM (inactive). Besides, the GI50 with UACC-62 is 45.8 µM (inactive).

For `c1cc(-c2cn3c(n2)SCC3)ccn1`, the GI50 is 20.5 µM (inactive) in the assay on 786-0; > 61.4 µM (inactive) in the assay on CCRF-CEM; over 43.2 µM with HCT-15; > 100 µM (inactive) in the assay with HT-29; > 31.6 µM (inactive) in the assay with K562; > 70.8 µM (inactive) in the assay on M14. Also, the GI50 in the assay on MOLT-4 was > 100 µM (inactive); in the assay with NCI-H226 it was > 100 µM (inactive); with NCI-H23, > 100 µM (inactive); in the assay on NCI-H460, > 55.3 µM (inactive); with OVCAR-3, > 100 µM (inactive); with OVCAR-4, > 100 µM (inactive). Moreover, the GI50 in the assay with OVCAR-5 is > 100 µM (inactive); in the assay with SF-268, > 100 µM (inactive); in the assay on SF-539, > 44.9 µM (inactive); in the assay with SR, > 100 µM (inactive); in the assay with TK-10 it was > 100 µM (inactive); in the assay with UACC-62, > 100 µM (inactive).

Consider `Cc1[nH]c2ccccc2c1C1Cc2ccccc2N1C(=O)C#Cc1ccc([N+](=O)[O-])cc1` (stereo not given), for which the GI50 in the assay with 786-0 is > 100 µM (inactive); in the assay with CCRF-CEM it was 19.2 µM (inactive); in the assay with HT-29, > 100 µM (inactive); in the assay with K562, > 100 µM (inactive); with M14 it was > 100 µM (inactive); with MOLT-4 it was 8.87 µM (inactive). For the same molecule, the GI50 in the assay on NCI-H226 is > 100 µM (inactive); in the assay on NCI-H23 it was > 100 µM (inactive); with NCI-H460, > 100 µM (inactive); in the assay on OVCAR-3, > 100 µM (inactive); in the assay with OVCAR-4, 43.7 µM (inactive); in the assay on OVCAR-5 it was > 100 µM (inactive). Further, the GI50 in the assay on RXF 393 was 6.81 µM (inactive); in the assay on SF-268, > 100 µM (inactive); with SF-539, > 100 µM (inactive); in the assay with SR, 8 µM (inactive); in the assay with TK-10 it was > 100 µM (inactive); in the assay on UACC-62, > 100 µM (inactive).

As to `CC(=O)Nc1ccc2nc(-c3cccc(F)c3)cc(O)c2c1`, the GI50 in the assay with 786-0 is 10.6 µM (inactive); in the assay with CCRF-CEM, 0.731 µM (active); with HCT-15 it was 17.7 µM; in the assay with HT-29 it was 5.28 µM (inactive); with K562 it was 2.13 µM (inactive); in the assay on M14 it was 4.95 µM (inactive). Moreover, the GI50 was 2.56 µM (inactive) with MOLT-4; 16.6 µM (inactive) in the assay on NCI-H23; 16.4 µM (inactive) in the assay with NCI-H460; 2.16 µM (inactive) with OVCAR-3; > 52.8 µM (inactive) in the assay with OVCAR-5; > 31.6 µM (inactive) in the assay on RXF 393. The GI50 was 28.1 µM (inactive) in the assay on SF-268; 1.41 µM (inactive) in the assay with SF-539; 2.32 µM (inactive) in the assay with SR; > 100 µM (inactive) with TK-10; 3.01 µM (inactive) with UACC-62.
